Test results as given in the NIST ThermoML archive (doi:10.1021/acs.jced.8b01135).

Assay: xn = mol fraction of the nth substance listed
Settings: 102 kPa, Liquid; for speed of sound: Frequency=3 MHz, Single path-length method; for mass density: Vibrating tube method; for viscosity: Concentric cylinders viscometry

CCCC1CCCCC1 [1-cyclohexylpropane] + CCCCCCCCCCCC
Settings	mass density [kg/m3]	speed of sound [m/s]	viscosity [mPa·s]
288.15 K, x1 = 0.1007	755.55	1317.5	–
288.15 K, x1 = 0.2001	758.92	1317.8	–
288.15 K, x1 = 0.3001	762.54	1318.2	–
288.15 K, x1 = 0.4011	766.49	1319.3	–
288.15 K, x1 = 0.5	770.63	1320.1	–
288.15 K, x1 = 0.6004	775.15	1320.9	–
288.15 K, x1 = 0.6995	780	1322.1	–
288.15 K, x1 = 0.7998	785.31	1323.8	–
288.15 K, x1 = 0.8997	791.13	1326.1	–
288.15 K, x1 = 1	797.42	1328.6	–
293.15 K, x1 = 0.1007	751.91	1297.9	1.44
293.15 K, x1 = 0.2001	755.26	1298.2	1.39
293.15 K, x1 = 0.3001	758.87	1298.6	1.34
293.15 K, x1 = 0.4011	762.8	1299.8	1.28
293.15 K, x1 = 0.5	766.92	1300.2	1.23
293.15 K, x1 = 0.6004	771.42	1300.8	1.18
293.15 K, x1 = 0.6995	776.23	1301.9	1.13
293.15 K, x1 = 0.7998	781.51	1303.4	1.08
293.15 K, x1 = 0.8997	787.31	1305.3	1.03
293.15 K, x1 = 1	793.53	1307.7	0.981
298.15 K, x1 = 0.1007	748.27	1278.4	–
298.15 K, x1 = 0.2001	751.61	1278.6	–
298.15 K, x1 = 0.3001	755.2	1279	–
298.15 K, x1 = 0.4011	759.11	1280.3	–
298.15 K, x1 = 0.5	763.2	1280.8	–
298.15 K, x1 = 0.6004	767.68	1280.8	–
298.15 K, x1 = 0.6995	772.46	1281.8	–
298.15 K, x1 = 0.7998	777.71	1283.1	–
298.15 K, x1 = 0.8997	783.46	1284.7	–
298.15 K, x1 = 1	789.63	1287.1	–
303.15 K, x1 = 0.1007	744.62	1259.1	1.23
303.15 K, x1 = 0.2001	747.95	1259.2	1.18
303.15 K, x1 = 0.3001	751.53	1259.5	1.14
303.15 K, x1 = 0.4011	755.41	1260.9	1.1
303.15 K, x1 = 0.5	759.48	1261.1	1.06
303.15 K, x1 = 0.6004	763.93	1261	1.02
303.15 K, x1 = 0.6995	768.68	1261.8	0.977
303.15 K, x1 = 0.7998	773.89	1262.9	0.936
303.15 K, x1 = 0.8997	779.6	1264.3	0.897
303.15 K, x1 = 1	785.72	1266.6	0.856
313.15 K, x1 = 0.1007	737.32	1221.1	1.05
313.15 K, x1 = 0.2001	740.61	1221.1	1.01
313.15 K, x1 = 0.3001	744.15	1221.3	0.979
313.15 K, x1 = 0.4011	747.98	1222.3	0.946
313.15 K, x1 = 0.5	752.01	1222.6	0.914
313.15 K, x1 = 0.6004	756.42	1222.1	0.882
313.15 K, x1 = 0.6995	761.11	1222.6	0.85
313.15 K, x1 = 0.7998	766.24	1223.3	0.818
313.15 K, x1 = 0.8997	771.86	1224.3	0.783
313.15 K, x1 = 1	777.88	1226.2	0.75
323.15 K, x1 = 0.1007	729.98	1183.9	0.909
323.15 K, x1 = 0.2001	733.24	1183.7	0.882
323.15 K, x1 = 0.3001	736.75	1183.8	0.856
323.15 K, x1 = 0.4011	740.52	1184.5	0.831
323.15 K, x1 = 0.5	744.5	1184.6	0.802
323.15 K, x1 = 0.6004	748.86	1183.9	0.776
323.15 K, x1 = 0.6995	753.49	1184.1	0.75
323.15 K, x1 = 0.7998	758.55	1184.6	0.721
323.15 K, x1 = 0.8997	764.09	1185.1	0.694
323.15 K, x1 = 1	770	1186.5	0.668
333.15 K, x1 = 0.1007	722.61	1147.6	0.792
333.15 K, x1 = 0.2001	725.82	1147.3	0.769
333.15 K, x1 = 0.3001	729.3	1147.3	0.75
333.15 K, x1 = 0.4011	733.02	1147.5	0.729
333.15 K, x1 = 0.5	736.95	1147.3	0.707
333.15 K, x1 = 0.6004	741.26	1146.7	0.685
333.15 K, x1 = 0.6995	745.82	1146.7	0.663
333.15 K, x1 = 0.7998	750.81	1146.8	0.64
333.15 K, x1 = 0.8997	756.27	1146.9	0.618
333.15 K, x1 = 1	762.09	1147.7	0.594

CCCCCCCC1CCCCC1 [heptylcyclohexane] + CCCCCCCCCCCC
Settings	mass density [kg/m3]	speed of sound [m/s]	viscosity [mPa·s]
288.15 K, x1 = 0.1002	758.6	1324.4	–
288.15 K, x1 = 0.201	764.82	1331.8	–
288.15 K, x1 = 0.3	771.01	1339.3	–
288.15 K, x1 = 0.3998	777.16	1346.8	–
288.15 K, x1 = 0.5002	783.44	1354.4	–
288.15 K, x1 = 0.5999	789.63	1362	–
288.15 K, x1 = 0.6998	795.81	1369.8	–
288.15 K, x1 = 0.8001	802.09	1377.6	–
288.15 K, x1 = 0.8998	808.24	1385.6	–
288.15 K, x1 = 1	814.51	1393.6	–
293.15 K, x1 = 0.1002	754.98	1304.9	1.57
293.15 K, x1 = 0.201	761.22	1312.4	1.67
293.15 K, x1 = 0.3	767.42	1319.9	1.76
293.15 K, x1 = 0.3998	773.59	1327.3	1.87
293.15 K, x1 = 0.5002	779.88	1335.1	1.99
293.15 K, x1 = 0.5999	786.08	1342.8	2.12
293.15 K, x1 = 0.6998	792.27	1350.4	2.26
293.15 K, x1 = 0.8001	798.57	1358.3	2.42
293.15 K, x1 = 0.8998	804.73	1366.2	2.6
293.15 K, x1 = 1	811	1374.2	2.8
298.15 K, x1 = 0.1002	751.36	1285.5	–
298.15 K, x1 = 0.201	757.61	1293.1	–
298.15 K, x1 = 0.3	763.84	1300.8	–
298.15 K, x1 = 0.3998	770.01	1308	–
298.15 K, x1 = 0.5002	776.32	1316	–
298.15 K, x1 = 0.5999	782.53	1323.6	–
298.15 K, x1 = 0.6998	788.73	1331.1	–
298.15 K, x1 = 0.8001	795.04	1339.3	–
298.15 K, x1 = 0.8998	801.21	1346.9	–
298.15 K, x1 = 1	807.49	1355.1	–
303.15 K, x1 = 0.1002	747.74	1266.3	1.33
303.15 K, x1 = 0.201	754.01	1273.9	1.41
303.15 K, x1 = 0.3	760.25	1281.8	1.48
303.15 K, x1 = 0.3998	766.42	1288.8	1.57
303.15 K, x1 = 0.5002	772.75	1297	1.66
303.15 K, x1 = 0.5999	778.98	1304.7	1.74
303.15 K, x1 = 0.6998	785.18	1312.1	1.85
303.15 K, x1 = 0.8001	791.51	1320.3	1.97
303.15 K, x1 = 0.8998	797.69	1327.9	2.11
303.15 K, x1 = 1	803.98	1336.1	2.25
313.15 K, x1 = 0.1002	740.48	1228.4	1.13
313.15 K, x1 = 0.201	746.79	1236.2	1.19
313.15 K, x1 = 0.3	753.05	1244.2	1.25
313.15 K, x1 = 0.3998	759.25	1251.2	1.32
313.15 K, x1 = 0.5002	765.6	1259.6	1.39
313.15 K, x1 = 0.5999	771.86	1267.3	1.47
313.15 K, x1 = 0.6998	778.09	1274.6	1.54
313.15 K, x1 = 0.8001	784.43	1283	1.63
313.15 K, x1 = 0.8998	790.64	1290.5	1.73
313.15 K, x1 = 1	796.95	1298.8	1.85
323.15 K, x1 = 0.1002	733.2	1191.3	0.976
323.15 K, x1 = 0.201	739.54	1199.2	1.02
323.15 K, x1 = 0.3	745.82	1207.3	1.08
323.15 K, x1 = 0.3998	752.06	1214.3	1.13
323.15 K, x1 = 0.5002	758.43	1222.8	1.19
323.15 K, x1 = 0.5999	764.71	1230.6	1.25
323.15 K, x1 = 0.6998	770.98	1238	1.32
323.15 K, x1 = 0.8001	777.34	1246.3	1.38
323.15 K, x1 = 0.8998	783.57	1253.9	1.45
323.15 K, x1 = 1	789.91	1262.2	1.55
333.15 K, x1 = 0.1002	725.89	1155.3	0.851
333.15 K, x1 = 0.201	732.26	1163.2	0.891
333.15 K, x1 = 0.3	738.56	1171.2	0.933
333.15 K, x1 = 0.3998	744.84	1178.5	0.977
333.15 K, x1 = 0.5002	751.23	1186.8	1.03
333.15 K, x1 = 0.5999	757.54	1194.6	1.08
333.15 K, x1 = 0.6998	763.84	1202.4	1.14
333.15 K, x1 = 0.8001	770.22	1210.5	1.18
333.15 K, x1 = 0.8998	776.49	1218.5	1.23
333.15 K, x1 = 1	782.85	1226.7	1.31
